Experimental findings from patent publication US20230131899A1, “INHIBITORS OF MICROBIALLY INDUCED AMYLOID” (Axial Therapeutics, Inc., priority 2020, published 2023) are described below.

The assay addresses T1, E. coli CsgA (Escherichia coli, UniProt P28307).
T1 construct: made in house; host or cells: E. coli NEB 3016 slyD::kan, pET11d
As to the kind of experiment: In vitro ThioflavinT assay of CsgA aggregation (CsgA ThT Assay). The format is biochemical. Particulars: 1005 minutes; for remaining activity at 25 µM: compound 25 μM; for remaining activity at 100 µM: compound 100 μM. The method, boiled down:
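Purified C-terminal His-tagged CsgA, monomerised by desalting and 30-kDa filtration, at 2-20 μM with 20-40 μM ThT in 50 mM potassium phosphate pH 7.3, 1% DMSO, compounds 3.125-200 uM; room temperature, fluorescence (ex 438/em 495 nm) read every 15 min. Background-subtracted signal expressed as percent inhibition versus vehicle at 6-6.5 or 8-9 h, or as percent control AUC.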

Setting [1] is: read-out: CsgA ThT Assay (10 μM CsgA) % Control AUC at 1005 minutes, 25 μM (activity range), CsgA 10 μM, black plates, class symbol.
Setting [2] is: read-out: CsgA ThT Assay (10 μM CsgA) % Control AUC at 1005 minutes, 25 μM, mean AUC as % of DMSO control, CsgA 10 μM, black plates.
Where [3] appears, read: read-out: CsgA ThT Assay (10 μM CsgA) % Control AUC at 1005 minutes, 100 μM (activity range), CsgA 10 μM, black plates, class symbol.
Setting [4] is: read-out: CsgA ThT Assay (10 μM CsgA) % Control AUC at 1005 minutes, 100 μM, mean AUC as % of DMSO control, CsgA 10 μM, black plates.

Read-outs that look alike come from different tables or passages of the source.

T1 sequence (P28307 23-151): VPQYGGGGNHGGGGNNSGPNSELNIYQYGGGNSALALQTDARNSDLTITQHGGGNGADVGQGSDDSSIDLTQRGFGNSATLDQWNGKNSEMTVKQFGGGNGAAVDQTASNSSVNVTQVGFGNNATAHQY

As to `CCCN1CC(C(=O)O)n2c(c(-c3cccc(C(F)(F)F)c3)c(Cc3cccc4ccccc34)c(NC3CCCC3)c2=O)S1(=O)=O` (centres unmarked) [Compound 126, 7-(cyclopentylamino)-8-(naphthalen-1-ylmethyl)-6-oxo-2-propyl-9-(3-(trifluoromethyl)phenyl)-3,4-dihydro-2H,6H-pyrido[1,2-e][1,2,5]thiadiazine-4-carboxylic acid 1,1-dioxide], the remaining activity at 25 µM runs as follows: under setting [1], 31 to 60%; under setting [2], 36%. In addition, the remaining activity at 100 µM reads like this: under setting [3], 31 to 60%; under setting [4], 40%.
Take `CCN1CC(C(=O)O)n2c(c(-c3cccc(C(F)(F)F)c3)c(Cc3cccc4ccccc34)cc2=O)S1(=O)=O` (single isomer, unassigned) [Compound 015a, 2-ethyl-8-(naphthalen-1-ylmethyl)-6-oxo-9-(3-(trifluoromethyl)phenyl)-3,4-dihydro-2H,6H-pyrido[1,2-e][1,2,5]thiadiazine-4-carboxylic acid 1,1-dioxide]: the remaining activity at 25 µM is 11 to 31% under setting [1] and 25% under setting [2]. In addition, the remaining activity at 100 µM is 11 to 31% under setting [3] and 17% under setting [4].
Consider `O=C(O)C1CSc2c(-c3cccc(C(F)(F)F)c3)c(Cc3cccc4ccccc34)cc(=O)n21` (racemic) [Compound 011, 7-(naphthalen-1-ylmethyl)-5-oxo-8-(3-(trifluoromethyl)phenyl)-2,3-dihydro-5H-thiazolo[3,2-a]pyridine-3-carboxylic acid], for which the remaining activity at 25 µM reads like this: under setting [1], over 60%; under setting [2], 63%. The remaining activity at 100 µM is, setting by setting: under setting [3], over 60%; under setting [4], 62%.
Consider `CN(C)CCN1CC(C(=O)O)n2c(c(-c3cccc(C(F)(F)F)c3)c(Cc3cccc4ccccc34)cc2=O)S1(=O)=O` (centres unmarked) [Compound 017, 2-(2-(dimethylamino)ethyl)-8-(naphthalen-1-ylmethyl)-6-oxo-9-(3-(trifluoromethyl)phenyl)-3,4-dihydro-2H,6H-pyrido[1,2-e][1,2,5]thiadiazine-4-carboxylic acid 1,1-dioxide], for which the remaining activity at 25 µM under setting [1] was over 60% and the remaining activity at 25 µM under setting [2] was found to be 95%. The remaining activity at 100 µM under setting [3] was over 60% and the remaining activity at 100 µM under setting [4] stood at 70%.
In the case of `CC(C)N1CC(C(=O)O)n2c(c(-c3cccc(C(F)(F)F)c3)c(Cc3cccc4ccccc34)c(NC3CCCC3)c2=O)S1(=O)=O` (centres unmarked) [Compound 123, 7-(cyclopentylamino)-2-isopropyl-8-(naphthalen-1-ylmethyl)-6-oxo-9-(3-(trifluoromethyl)phenyl)-3,4-dihydro-2H,6H-pyrido[1,2-e][1,2,5]thiadiazine-4-carboxylic acid 1,1-dioxide], the remaining activity at 25 µM under setting [1] fell in the range of 11 to 31% and the remaining activity at 25 µM under setting [2] is 26%. Moreover, the remaining activity at 100 µM runs as follows: under setting [3], 11 to 31%; under setting [4], 25%.
Consider `CCCN1CC(C(=O)O)n2c(c(-c3cccc(C(F)(F)F)c3)c(Cc3cccc4ccccc34)cc2=O)S1(=O)=O` (racemic) [Compound 016, 8-(naphthalen-1-ylmethyl)-6-oxo-2-propyl-9-(3-(trifluoromethyl)phenyl)-3,4-dihydro-2H,6H-pyrido[1,2-e][1,2,5]thiadiazine-4-carboxylic acid 1,1-dioxide], for which the remaining activity at 25 µM reads like this: under setting [1], 31 to 60%; under setting [2], 48%. The remaining activity at 100 µM under setting [3] was in the range of 31 to 60% and the remaining activity at 100 µM under setting [4] is 33%.
`O=C(O)[C@H]1CS(=O)(=O)c2c(-c3cccc(C(F)(F)F)c3)c(Cc3cccc4ccccc34)cc(=O)n21` (single isomer, unassigned) [Compound 010b, 7-(naphthalen-1-ylmethyl)-5-oxo-8-(3-(trifluoromethyl)phenyl)-2,3-dihydro-5H-thiazolo[3,2-a]pyridine-3-carboxylic acid 1,1-dioxide]: the remaining activity at 25 µM was over 60% under setting [1] and 85% under setting [2]. Also, the remaining activity at 100 µM under setting [3] lay in the range of 31 to 60% and the remaining activity at 100 µM under setting [4] was 45%.
With `Nc1c(Cc2cccc3ccccc23)c(-c2cccc(C(F)(F)F)c2)c2n(c1=O)C(C(=O)O)CS2` (racemic) [Compound 020, 6-amino-7-(naphthalen-1-ylmethyl)-5-oxo-8-(3-(trifluoromethyl)phenyl)-2,3-dihydro-5H-thiazolo[3,2-a]pyridine-3-carboxylic acid], the remaining activity at 25 µM was 11 to 31% under setting [1] and 18% under setting [2]. Besides, the remaining activity at 100 µM is under 10% under setting [3] and 7% under setting [4].
For the molecule `COc1ccc(CN2C[C@@H](C(=O)O)n3c(c(-c4cccc(C(F)(F)F)c4)c(Cc4cccc5ccccc45)cc3=O)S2(=O)=O)cc1` (single isomer, unassigned) [Compound 026a], the remaining activity at 25 µM reads like this: under setting [1], 31 to 60%; under setting [2], 41%.
Take `CCc1c(Cc2cccc3ccccc23)c(-c2cccc(C(F)(F)F)c2)c2n(c1=O)C(C(=O)O)CN(C1CCCCC1)S2(=O)=O` (centres unmarked) [Compound 116, 2-cyclohexyl-7-ethyl-8-(naphthalen-1-ylmethyl)-6-oxo-9-(3-(trifluoromethyl)phenyl)-3,4-dihydro-2H,6H-pyrido[1,2-e][1,2,5]thiadiazine-4-carboxylic acid 1,1-dioxide]: the remaining activity at 25 µM by setting is: under setting [1], 11 to 31%; under setting [2], 30%. Besides, the remaining activity at 100 µM by setting is: under setting [3], 31 to 60%; under setting [4], 38%.
The matching figures for `O=C(O)CN1CC(C(=O)O)n2c(c(-c3cccc(C(F)(F)F)c3)c(Cc3cccc4ccccc34)cc2=O)S1(=O)=O` (centres unmarked) [Compound 018, 2-(carboxymethyl)-8-(naphthalen-1-ylmethyl)-6-oxo-9-(3-(trifluoromethyl)phenyl)-3,4-dihydro-2H,6H-pyrido[1,2-e][1,2,5]thiadiazine-4-carboxylic acid 1,1-dioxide]: over 60%, 95%, 31 to 60% and 60%.
The matching figures for `C=CCCN1CC(C(=O)O)n2c(c(-c3cccc(C(F)(F)F)c3)c(Cc3cccc4ccccc34)cc2=O)S1(=O)=O` (centres unmarked) [Compound 024, 2-(but-3-en-1-yl)-8-(naphthalen-1-ylmethyl)-6-oxo-9-(3-(trifluoromethyl)phenyl)-3,4-dihydro-2H,6H-pyrido[1,2-e][1,2,5]thiadiazine-4-carboxylic acid 1,1-dioxide]: 31 to 60%, 35%, 31 to 60% and 39%.
Consider `O=C(O)C1CSc2c(-c3cccc(C(F)(F)F)c3)c(Cc3cccc4ccccc34)cc(=O)n21` (single isomer, unassigned) [Compound 011a, 7-(naphthalen-1-ylmethyl)-5-oxo-8-(3-(trifluoromethyl)phenyl)-2,3-dihydro-5H-thiazolo[3,2-a]pyridine-3-carboxylic acid], for which the remaining activity at 25 µM is 31 to 60% under setting [1] and 47% under setting [2]. Besides, the remaining activity at 100 µM runs as follows: under setting [3], 31 to 60%; under setting [4], 41%.
As for `O=C(O)C1CN(CCCO)S(=O)(=O)c2c(-c3cccc(C(F)(F)F)c3)c(Cc3cccc4ccccc34)c(NC3CCCC3)c(=O)n21` (centres unmarked) [Compound 120, 7-(cyclopentylamino)-2-(3-hydroxypropyl)-8-(naphthalen-1-ylmethyl)-6-oxo-9-(3-(trifluoromethyl)phenyl)-3,4-dihydro-2H,6H-pyrido[1,2-e][1,2,5]thiadiazine-4-carboxylic acid 1,1-dioxide], the remaining activity at 25 µM was 11 to 31% under setting [1] and 28% under setting [2]. Further, the remaining activity at 100 µM under setting [3] is 11 to 31% and the remaining activity at 100 µM under setting [4] was found to be 12%.
Consider `CN1CC(C(=O)O)n2c(c(-c3cccc(C(F)(F)F)c3)c(Cc3cccc4ccccc34)c(N)c2=O)S1(=O)=O` (centres unmarked) [Compound 074, 7-amino-2-methyl-8-(naphthalen-1-ylmethyl)-6-oxo-9-(3-(trifluoromethyl)phenyl)-3,4-dihydro-2H,6H-pyrido[1,2-e][1,2,5]thiadiazine-4-carboxylic acid 1,1-dioxide], for which the remaining activity at 25 µM reads like this: under setting [1], 11 to 31%; under setting [2], 28%. Moreover, the remaining activity at 100 µM is, setting by setting: under setting [3], 11 to 31%; under setting [4], 24%.
As for `CCCN1CC(C(=O)O)n2c(c(-c3cccc(C(F)(F)F)c3)c(Cc3cccc4ccccc34)c(NC3CCOCC3)c2=O)S1(=O)=O` (centres unmarked) [Compound 127, 8-(naphthalen-1-ylmethyl)-6-oxo-2-propyl-7-((tetrahydro-2H-pyran-4-yl)amino)-9-(3-(trifluoromethyl)phenyl)-3,4-dihydro-2H,6H-pyrido[1,2-e][1,2,5] thiadiazine-4-carboxylic acid 1,1-dioxide], the remaining activity at 25 µM under setting [1] was 11 to 31% and the remaining activity at 25 µM under setting [2] stood at 26%. In addition, the remaining activity at 100 µM is, setting by setting: under setting [3], under 10%; under setting [4], 7%.
